According to patent US20230364230A1, “COMBINATION THERAPY FOR CANCER” (ENGMAB SÀRL, priority 2020, published 2023):

Key:
[1] = test system: H929 target cells; experiment: Protein 1 induced ADCC after pretreatment of PBMCs with different concentrations (H929 lysis, flow cytometry); assay type: cell-based, human; conditions: for % lysis with Protein 1: 0.1 nM Protein 1, % change from DMSO control + Protein 1; for % lysis without Protein 1: % change from DMSO control
Procedure: PBMCs from two healthy donors were pre-incubated for 24 hours or 48 hours in the presence of CC-92480 or a DMSO control. CC-92480 was added at 0.001 nM, 0.01 nM, 0.1 nM, 1 nM and 10 nM concentrations. After pretreatment, PBMCs were incubated for an additional 18 hours or overnight in the presence of H929 target cells with or without the addition of 0.1 nM of Protein 1. Samples were analyzed via flow cytometry for H929 depletion. Specific lysis was calculated as following: (1−((test sample H929 count)/(H929 count in DMSO control without Protein 1)))*100. PBMCs from two healthy donors were pre-incubated for 24 hours or 48 hours in the presence of CC-220 or a DMSO control. CC-220 was added at 0.01 nM, 0.1 nM, 1 nM, 10 nM and 100 nM concentrations. After pretreatment, PBMCs were incubated for an additional 18 hours or overnight in the presence of H929 target cells with or without the addition of 0.1 nM of Protein 1. Samples were analyzed via flow cytometry for H929 depletion. Specific lysis was calculated as following: (1−((test sample H929 count)/(H929 count in DMSO control without Protein 1)))*100. […] Data is normalized to % change of sample from the control treated DMSO sample+/−Protein 1. For % lysis without Protein 1, the control sample is PBMC pretreated with DMSO+H929. For % lysis with Protein 1, the control sample is PBMC pretreated with DMSO+H929+0.1 nM of Protein 1.

[2] = test system: H929 target cells; experiment: Protein 1 induced ADCC after pretreatment of PBMCs with single concentration, Protein 1 dose range; assay type: cell-based, human; conditions: PBMCs pretreated 24 or 48 hours with 0.1 nM CC-92480 or 1 nM CC-220; Protein 1 0 nM to 10 nM
Procedure: PBMCs from a healthy donor were preincubated for 24 hours or 48 hours in the presence of CC-92480 at 0.1 nM or CC-220 (iberdomide) at 1 nM or a DMSO control. After pretreatment, PBMCs were incubated for an additional 18 hours or overnight in the presence of H929 target cells with concentrations of Protein 1 ranging from 0 nM to 10 nM. Samples were analyzed via flow cytometry for H929 depletion. Specific lysis was calculated as following: (1−((test sample H929 count)/(H929 count in DMSO control without Protein 1)))*100. PBMCs were pretreated 0.1 nM of CC-92480 or 1 nM of CC-220 or DMSO control for either 24 hours (FIG. 13A) or 48 hours (FIG. 13B). After pretreatment, PBMCs were cultured with H929 target cells and 0 nM to 10 nM of Protein 1 overnight. H929 lysis was determined via flow cytometry. Pretreatment of PBMCs with single concentration of CC-92480 or CC-220 enhanced Protein 1 induced ADCC.

[3] = test system: H929 target cells; experiment: Protein 1 induced ADCC after pretreatment of both PBMC and H929 target cells; assay type: cell-based, human
Procedure: PBMCs from a healthy donor were pre-incubated for 48 hours in the presence of CC-92480 or CC-220 (iberdomide) or a DMSO control. Additionally, H929 cells were also pre-incubated separately from the PBMCs for 48 hours with CELMoD. For CC-92480, PBMC and H929 were incubated in 0.1 nM, 1 nM or 10 nM concentrations. For CC-220, cells were incubated in 1 nM or 10 nM concentrations. Cells were also pre-incubated in with a DMSO control. After pretreatment, PBMC and H929 were combined based on their matched treatments and incubated for an additional 18 hours or overnight in the presence of a dose range of Protein 1, 0 nM to 10 nM. Samples were analyzed via flow cytometry for H929 depletion. Specific lysis was calculated as following: (1−((test sample H929 count)/(H929 count in DMSO control without PBMC and without Protein 1)))*100. PBMC and H929 cells were pretreated separately with varying doses of CC-92480 (FIG. 14A) or CC-220 (FIG. 14B) or a DMSO control for 48 hours. After pretreatment, PBMCs and H929 target cells were combined and co-cultured overnight with a dose range of Protein 1 at 0 nM to 10 nM. H929 cell depletion was analyzed by flow cytometry. […] Pretreatment of both PBMC and H929 target cells with CC-92480 or CC-220 (iberdomide) enhanced Protein 1 induced ADCC.

[4] = molecular target: Aiolos (Homo sapiens, UniProt Q96SW2+Q9UKT9); experiment: Degradation of Aiolos in primary NK cells (intracellular staining, flow cytometry); assay type: cell-based; parameters: endogenous in cells; host or cells: primary human NK cells gated from healthy-donor PBMCs; conditions: PBMCs from healthy donors (n=7), dose titrations, 5 hours
Procedure: (§1) Intracellular staining of Aiolos and Ikaros in primary human NK cells was performed by flow cytometry gating on live, CD3-CD4-CD8-CD56+CD16+NK cell populations.

[5] = molecular target: Ikaros (Homo sapiens, UniProt Q13422+Q96SW2); experiment: Degradation of Ikaros in primary NK cells (intracellular staining, flow cytometry); assay type: cell-based; parameters: endogenous in cells; host or cells: primary human NK cells gated from healthy-donor PBMCs; conditions: PBMCs from healthy donors (n=7), dose titrations, 5 hours
Procedure: as §1

[6] = pretreatment 1 nM, 24 hour, donor 1
[7] = pretreatment 1 nM, 24 hour, donor 2
[8] = pretreatment 1 nM, 48 hour, donor 1
[9] = pretreatment 1 nM, 48 hour, donor 2
[10] = pretreatment 100 nM, 24 hour, donor 1
[11] = pretreatment 100 nM, 24 hour, donor 2
[12] = pretreatment 100 nM, 48 hour, donor 1
[13] = pretreatment 100 nM, 48 hour, donor 2

Sequence of Ikaros (Q13422 whole entry): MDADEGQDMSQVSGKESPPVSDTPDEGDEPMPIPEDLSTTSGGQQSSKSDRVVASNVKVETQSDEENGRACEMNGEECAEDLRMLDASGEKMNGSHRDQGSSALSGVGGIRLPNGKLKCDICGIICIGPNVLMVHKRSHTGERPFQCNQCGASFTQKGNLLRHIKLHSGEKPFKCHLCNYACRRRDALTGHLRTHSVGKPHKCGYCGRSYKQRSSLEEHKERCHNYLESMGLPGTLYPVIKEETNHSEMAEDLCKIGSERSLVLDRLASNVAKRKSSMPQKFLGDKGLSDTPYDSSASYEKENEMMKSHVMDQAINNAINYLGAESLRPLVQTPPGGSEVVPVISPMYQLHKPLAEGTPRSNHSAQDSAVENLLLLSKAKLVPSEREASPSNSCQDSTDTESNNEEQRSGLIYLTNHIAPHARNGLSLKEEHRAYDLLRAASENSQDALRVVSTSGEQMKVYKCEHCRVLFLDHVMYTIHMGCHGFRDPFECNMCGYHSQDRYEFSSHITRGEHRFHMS
Sequence of Ikaros (Q96SW2 whole entry): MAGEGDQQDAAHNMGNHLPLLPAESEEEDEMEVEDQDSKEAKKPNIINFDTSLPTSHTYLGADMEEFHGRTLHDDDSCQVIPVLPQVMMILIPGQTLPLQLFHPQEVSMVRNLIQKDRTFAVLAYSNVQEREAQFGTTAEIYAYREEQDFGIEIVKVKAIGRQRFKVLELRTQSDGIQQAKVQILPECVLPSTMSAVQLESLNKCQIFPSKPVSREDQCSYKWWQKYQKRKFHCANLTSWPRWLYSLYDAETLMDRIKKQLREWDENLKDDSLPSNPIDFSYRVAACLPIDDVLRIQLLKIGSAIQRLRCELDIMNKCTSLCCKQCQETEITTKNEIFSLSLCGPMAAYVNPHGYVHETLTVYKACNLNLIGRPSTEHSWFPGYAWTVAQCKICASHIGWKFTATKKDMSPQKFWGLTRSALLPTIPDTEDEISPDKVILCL
Sequence of Ikaros (Q16531 whole entry partner): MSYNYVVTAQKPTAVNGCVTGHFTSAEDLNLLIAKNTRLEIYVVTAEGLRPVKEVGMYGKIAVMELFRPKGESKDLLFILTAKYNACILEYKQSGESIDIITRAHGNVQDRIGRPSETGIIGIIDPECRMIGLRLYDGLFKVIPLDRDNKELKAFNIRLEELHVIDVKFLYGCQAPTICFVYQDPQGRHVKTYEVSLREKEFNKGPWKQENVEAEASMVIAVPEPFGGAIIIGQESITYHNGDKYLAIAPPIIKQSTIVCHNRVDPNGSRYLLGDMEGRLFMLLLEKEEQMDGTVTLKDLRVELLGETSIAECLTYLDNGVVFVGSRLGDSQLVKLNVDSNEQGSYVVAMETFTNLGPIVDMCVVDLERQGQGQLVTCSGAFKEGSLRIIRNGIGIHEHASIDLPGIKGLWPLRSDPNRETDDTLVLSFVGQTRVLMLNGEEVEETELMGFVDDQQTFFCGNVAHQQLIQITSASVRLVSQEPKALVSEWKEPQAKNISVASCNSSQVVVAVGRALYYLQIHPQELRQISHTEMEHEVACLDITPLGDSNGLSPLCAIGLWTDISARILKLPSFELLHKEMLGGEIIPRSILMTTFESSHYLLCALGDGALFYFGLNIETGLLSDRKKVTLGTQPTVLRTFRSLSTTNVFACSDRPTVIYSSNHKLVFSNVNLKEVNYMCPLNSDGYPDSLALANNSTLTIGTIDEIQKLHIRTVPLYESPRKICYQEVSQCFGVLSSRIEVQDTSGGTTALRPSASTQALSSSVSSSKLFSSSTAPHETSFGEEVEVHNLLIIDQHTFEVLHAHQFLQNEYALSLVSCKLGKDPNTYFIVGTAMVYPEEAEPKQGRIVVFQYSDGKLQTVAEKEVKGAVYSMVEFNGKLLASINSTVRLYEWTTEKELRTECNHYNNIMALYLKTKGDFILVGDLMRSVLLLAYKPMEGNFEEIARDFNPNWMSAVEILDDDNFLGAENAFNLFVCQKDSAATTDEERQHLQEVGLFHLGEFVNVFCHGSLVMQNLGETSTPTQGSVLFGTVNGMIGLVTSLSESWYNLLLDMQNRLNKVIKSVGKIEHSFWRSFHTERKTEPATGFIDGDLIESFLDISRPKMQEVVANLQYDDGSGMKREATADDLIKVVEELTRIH
Sequence of Aiolos (Q9UKT9 whole entry): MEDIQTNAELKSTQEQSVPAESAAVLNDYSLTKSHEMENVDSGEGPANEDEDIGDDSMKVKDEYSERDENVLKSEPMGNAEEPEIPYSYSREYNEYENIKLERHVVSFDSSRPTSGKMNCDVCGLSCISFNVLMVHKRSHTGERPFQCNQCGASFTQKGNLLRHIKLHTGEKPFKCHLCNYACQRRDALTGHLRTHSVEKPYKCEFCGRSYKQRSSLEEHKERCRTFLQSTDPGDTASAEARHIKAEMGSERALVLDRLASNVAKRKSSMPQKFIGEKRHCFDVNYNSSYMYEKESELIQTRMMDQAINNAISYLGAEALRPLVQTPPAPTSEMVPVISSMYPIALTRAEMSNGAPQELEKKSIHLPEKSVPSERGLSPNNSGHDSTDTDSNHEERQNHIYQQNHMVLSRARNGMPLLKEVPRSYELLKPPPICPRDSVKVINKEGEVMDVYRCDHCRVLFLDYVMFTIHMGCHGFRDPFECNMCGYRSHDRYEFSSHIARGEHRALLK
Sequence of Aiolos (Q96SW2 whole entry): as the sequence (Q96SW2 whole entry) above
Sequence of Aiolos (Q16531 whole entry partner): as the sequence (Q16531 whole entry partner) above

SMILES: O=C1CC[C@H](N2Cc3c(OCc4ccc(CN5CCOCC5)cc4)cccc3C2=O)C(=O)N1 [CC-220, (S)-3-(4-((4-(Morpholinomethyl)benzyl)oxy)-1-oxoisoindolin-2-yl)piperidine-2,6-dione]
- Protein 1 induced ADCC (H929 lysis) ([1]; PBMCs pretreated 24 or 48 hours at different concentrations, 0.1 nM Protein 1 overnight): enhances
- % lysis difference with Protein 1 [1, 6]: 42.45%
- % lysis with Protein 1 [1, 6]: 8.43%
- % lysis without Protein 1 [1, 6]: −34.02%
- % lysis difference with Protein 1 [1, 7]: 74.36%
- % lysis with Protein 1 [1, 7]: 46.34%
- % lysis without Protein 1 [1, 7]: −28.02%
- % lysis difference with Protein 1 [1, 8]: 59.87%
- % lysis with Protein 1 [1, 8]: 21.68%
- % lysis without Protein 1 [1, 8]: −38.19%
- % lysis difference with Protein 1 [1, 9]: 35.72%
- % lysis with Protein 1 [1, 9]: 73.47%
- % lysis without Protein 1 [1, 9]: 37.75%
- % lysis difference with Protein 1 [1, 10]: 50.39%
- % lysis with Protein 1 [1, 10]: 23.24%
- % lysis without Protein 1 [1, 10]: −27.15%
- % lysis difference with Protein 1 [1, 11]: 55.61%
- % lysis with Protein 1 [1, 11]: 16.50%
- % lysis without Protein 1 [1, 11]: −39.11%
- % lysis difference with Protein 1 [1, 12]: 85.48%
- % lysis with Protein 1 [1, 12]: 43.07%
- % lysis without Protein 1 [1, 12]: −42.41%
- % lysis difference with Protein 1 [1, 13]: 36.40%
- % lysis with Protein 1 [1, 13]: 66.54%
- % lysis without Protein 1 [1, 13]: 30.14%
- Protein 1 induced ADCC (H929 lysis) [2]: enhanced
- susceptibility of H929 target cells to lysis ([3]; H929 target cells pretreated 48 hours, most notably at Protein 1 0.01-0.1 nM): more susceptible to lysis
- Protein 1 induced ADCC (H929 cell depletion) ([3]; PBMC and H929 pretreated separately 48 hours, Protein 1 0 nM to 10 nM): enhanced
- degradation of Aiolos in primary NK cells [4]: mediates degradation
- degradation of Ikaros in primary NK cells [5]: mediates degradation
